Test results from patent US11083735B2, “Methods for treating sleep disorders, sleep disturbances, and related symptoms using aminosterol compositions” (Enterin, Inc., priority 2017, dated 2021).

What was measured:
Format in all cases: in vivo, human
[1] = Duration of the aminosterol-induced response after a single oral dose; details: single 200 mg oral dose
Source text: The invention is also based on the discovery of unexpected and unprecedented activity of orally or nasally administered squalamine and related aminosterols (e.g., aminosterol 1436). The activity relates to stimulating a sequence of events within the human GI tract with therapeutic value. With respect to this activity, the sequence of events stimulated by an aminosterol such as squalamine or aminosterol 1436 involves the induction of an intestinal secretory response followed by a period of “small intestinal quieting,” and the subsequent passage of a normally formed bowel movement. These events are best explained as a consequence of the stimulation of a heretofore unknown physiological gastrointestinal response, in this invention shown to be controlled or initiated by an effective oral dose of an aminosterol such as squalamine or the related aminosterol, 1436 (Aminosterol-Induced GI Response). The activity relates to stimulating the neural connections between the enteric nervous system and the brain with therapeutic value, which can thereby impact sleeping disorders, sleeping disturbances, or related symptoms, as described herein. With respect to this activity, the sequence of events stimulated by an aminosterol involves the entrainment of the circadian clock, the suprachiasmatic nucleus, and an improvement in the quality of sleep. […]

[2] = system: patients with PD and constipation; assay: Phase 2 trial: adverse events, all dosed patients (Stage 1 and 2)
Procedure: Safety and Adverse Event (AE) Profile: Fifty patients were enrolled and 44 were dosed. In Stage 1, 10 patients were dosed, 1 (10%) withdrew prior to completion and 9 (90%) completed dosing. In stage 2, 6 (15%) patients had ≥3 CSBM/week at the end of the run-in period and were excluded, 34 patients were dosed and bowel response was assessable in 31 (91%). Two patients (5.8%) were terminated prior to completion because of recurrent dizziness, and 3 others withdrew during dosing (8.8%): 2 because of diarrhea and 1 because of holiday. Fifteen patients were randomized.
Most AEs were confined to the GI tract (88% in Stage 1 and 63% in Stage 2). The most common AE was nausea which occurred in 4/10 (40%) patients in Stage 1 and in 18/34 (52.9%) in Stage 2 (Table 6). Diarrhea occurred in 4/10 (40%) patients in Stage 1 and 15/34 (44%) in Stage 2. One patient withdrew because of recurrent diarrhea. Other GI related AEs included abdominal pain 11/44 […], flatulence 3/44 (6.8%), vomiting 3/44 (6.8%), worsening of acid reflux 2/44 (4.5%), and worsening of hemorrhoids 1/44 (2.2%). […] The only other noteworthy AE was dizziness 8/44 (18%). Dizziness was graded as moderate in one patient who was receiving an alpha-adrenergic blocking agent (Terazosin). This patient was withdrawn from the study and recovered spontaneously.

[3] = system: patients with PD; assay: Phase 2 trial Stage 2: sleep diary (total sleep time, arm or leg thrashing / RBD)
Procedure: FIG. 18 is a chart of total sleep time in relation to squalamine dose. Total sleep time was obtained from the sleep diary by subtracting awake time during the night from total time spent in bed. Total sleep time per night was logged for each patient at baseline, each dosing period and at washout, and the means were determined. The light grey bar represents the baseline value for each cohort at a given dose level and the dark grey bar represents the value for the same cohort at the stated dose of squalamine (ENT-01; Kenterin™). The number of patients represented at each value are: Baseline, 33; 75 mg, 21; 100 mg, 28; 125 mg, 18; 150 mg, 15; 175 mg, 12; 200 mg, 7; 225 mg, 3; 250 mg, 2; washout, 33. P values were as follows: 75 mg, p=0.4; 100 mg, p=0.1; 125 mg, p=0.3; 150 mg, p=0.07; 175 mg, p=0.03; 200 mg, p=0.3; 225 mg, p=0.5; 250 mg, p=0.3; wash-out, p=0.04 (paired t test).
The frequency of arm or leg thrashing reported in the sleep diary diminished progressively from 2.2 episodes/week at baseline to 0 at maximal dose.
(5) Sleep Diary (participants completed a sleep diary on a daily basis throughout the study. The diaries included time into bed and estimated time to sleep as well as wake time and duration during the night.);
Exploratory end-points, in addition to constipation, included for example, (i) depression assessed using the Beck Depression Inventory (BDI-II) (Steer et al. 2000) and Unified Parkinson's Disease Rating Scale (UPDRS); (ii) cognition assessed using the Mini Mental State Examination (MMSE) (Palsteia et al. 2018), Unified Parkinson's Disease Rating Scale (UPDRS), and Trail Making Test (TMT); (iii) sleep and REM-behavior disorder (RBD) using a daily sleep diary, I-Button Temperature Assessment, a REM sleep behavior disorder (RBD) questionnaire (RBDQ) (Stiasny-Kolster et al. 2007), and the UPDRS; (iv) hallucinations assessed using the PD hallucinations questionnaire (PDHQ) (Papapetropoulos et al. 2008), the UPDRS, and direct questioning; (v) fatigue using the Parkinson's Disease Fatigue Scale (PFS-16) and the UPDRS; (vi) motor functions using the UPDRS; and (vii) non-motor functions using the UPDRS.

With `CC(C)[C@@H](CC[C@@H](C)[C@H]1CC[C@H]2[C@@H]3[C@H](O)C[C@H]4C[C@@H](NCCCNCCCCN)CC[C@]4(C)[C@H]3CC[C@]12C)OS(=O)(=O)O` [squalamine] the “duration of the aminosterol-induced response” value [1] was “about 4 days”.
For `CC(C)[C@@H](CC[C@@H](C)[C@H]1CC[C@H]2[C@@H]3[C@H](O)C[C@H]4C[C@@H](NCCCNCCCCN)CC[C@]4(C)[C@H]3CC[C@]12C)OS(=O)(=O)O` (single isomer, unassigned; ent-01) [ENT-01], the worsening of hemorrhoids ([2]; 1/44) was 2.2%, the “worsening of acid reflux” value ([2]; 2/44) was 4.5% and the flatulence ([2]; 3/44) was 6.8%. It also gave a vomiting ([2]; 3/44) of 6.8%, a dizziness ([2]; 8/44) of 18% and an abdominal pain ([2]; 11/44) of 32%. The “increase of total sleep time” value ([3]; 250 mg vs baseline) was 18%, the Total sleep time ([3]; at 250 mg, baseline 7.1) was 8.4 h and the “improvement of arm or leg thrashing frequency” value ([3]; at maximal dose vs baseline) was 100%. For the same molecule, the “frequency of arm or leg thrashing reported in the sleep diary” value ([3]; at maximal dose, baseline 2.2) was 0 episodes/week and the Total sleep time ([3]; beyond 125 mg) was “consistently higher than baseline”.
